Tests used:
Format in all cases: cell-based, human
A549 cells = assay: Cell viability resazurin assay, A549 cells; settings: for viability of A549 cells relative to control: ± SD
Method: (§1) The A549 (human non-small cell lung cancer) cell line was obtained from the American Type Culture Collection (ATCC) and cultured in Dulbecco's Modified Eagle Medium (DMEM) with 10% fetal bovine serum (FBS), 2 mM L-Glutamine, 25 mM HEPES and penicillin/streptomycin solution (100 U/ml and 100 µg/ml, respectively). The HL-60 (human promyelocytic leukemia) cell line was also obtained from the American Type Culture Collection (ATCC) and cultured in Iscove’s Modified Dulbecco's Medium (IMDM) with 15% fetal bovine serum (FBS), 2 mM L-Glutamine, 25 mM HEPES and penicillin/streptomycin solution (100 U/ml and 100 µg/ml, respectively). Both cell lines were cultured in flasks at 37 °C in 5% CO2 and sub-cultured every 2–3 days to maintain exponential growth.
(§2) Firstly, resazurin salt powder was dissolved in sterile 1 × PBS. Cells were then seeded on the 96-well plates in the count of 1 × 10^4 in the case of HL-60 cells and of 5 × 10^4 for PBM cells and of 5 × 10^3 for A549 cells per well. A549 cells were seeded 24 h prior to treatment with the complexes to allow cell adherence to 96-well plate. Iron(II) complexes were added to wells to obtain final concentrations of 0.5, 1, 2.5, 5, 10, 25, 50, 100 and 250 μM. Subsequently, plates were incubated at 37 °C in 5% CO2 for 2 h and 24 h. After that 10 μl of resazurin salt was added to each well and plates again were incubated in 37 °C in 5% CO2 for 2 h. Finally, fluorescence was measured with microplate reader Synergy HT (Bio-Tek Instruments, USA) using an excitation wavelength of 530/25 and an emission wavelength of 590/35 nm. The effects of iron(II) complexes were calculated as the percentage of control fluorescence. IC50 (half maximal inhibitory concentration) values were calculated using a website algorithm (https://www.aatbio.com/tools/ic50-calculator). All assays were performed in octuplicate.

HL-60 cells [1] = assay: Alkaline comet assay, HL-60 cells
Method: Selected iron(II) complexes were added to the suspension of the cells to give final concentrations of 1, 5, 10, 25 and 50 μM. HL-60 and A549 cells were incubated with the complexes for 2 h at 37 °C. The comet assay was performed under alkaline conditions according to the procedure of Tokarz et al.[45]. […] Next, the cells were lysed for 1 h at 4 °C in a buffer containing 2.5 M NaCl, 0.1 M EDTA, 10 mM Tris, 1% Triton X-100, pH 10. Following the lysis, the slides were placed in an electrophoresis unit. DNA was allowed to unwind for 20 min in the solution containing 300 mM NaOH and 1 mM EDTA, pH > 13. […] After separation, the slides were washed in water, drained, stained with 2 μg/ml DAPI and covered with cover slips. As a prevention from additional DNA damage, the procedure described above was conducted under limited light or in the dark. Each experiment included the positive control—cells incubated with H2O2 at 20 µM for 15 min on ice (data not shown).
The comets obtained after single cell gel electrophoresis were analysed in the following manner. […] Hundred images of singular comets were randomly selected from each sample and the mean value of DNA in comet tail was taken as an index of DNA damage (expressed in percent).

HL-60 cells [2] = assay: Cell viability resazurin assay, HL-60 cells; settings: for viability of HL-60 cells relative to control: ± SD
Method: as §1, §2

PBM cells = assay: Cell viability resazurin assay, PBM cells; settings: for viability of PBM cells relative to control: ± SD
From the text: Peripheral blood mononuclear (PBM) cells were isolated from a leukocyte-buffy coat collected from the blood of healthy, non-smoking donors at the Blood Bank in Lodz, Poland. The study protocol received approval from the Committee for Research on Human Subjects of the University of Lodz (17/KBBN-UŁ/III/2019). The initial step of isolation process involved mixing buffy coats with PBS in a 1:1 ratio. Subsequently, the mixture was centrifuged using a density gradient of Lymphosep (Cytogen, Zgierz, Poland) at 2200 RPM for 20 min, employing the lowest values for acceleration and deceleration. PBM cells were collected and washed three times by centrifugation with 1 × PBS. Following isolation, the cells were suspended in RPMI 1640 medium.
as §2

O=C1C=CC(=O)[N-]1.[C-]#[O+].[C-]#[O+].[Fe+2].c1cc[cH-]c1 [compound 1, CpFe(CO)2(η^1-N-maleimidato)]
viability of A549 cells relative to control (A549 cells; 2 h incubation, 0.5 µM): 93.79 ± 10.65%
viability of A549 cells relative to control (A549 cells; 2 h incubation, 1 µM): 93.56 ± 10.37%
viability of A549 cells relative to control (A549 cells; 2 h incubation, 2.5 µM): 78.45 ± 9.98%
viability of A549 cells relative to control (A549 cells; 2 h incubation, 5 µM): 67.97±12.88%
viability of A549 cells relative to control (A549 cells; 2 h incubation, 10 µM): 63.34 ± 13%
viability of A549 cells relative to control (A549 cells; 2 h incubation, 25 µM): 51.29 ± 9.65%
viability of A549 cells relative to control (A549 cells; 2 h incubation, 50 µM): 41.64 ± 8.89%
viability of A549 cells relative to control (A549 cells; 2 h incubation, 100 µM): 36.49 ± 6.19%
viability of A549 cells relative to control (A549 cells; 2 h incubation, 250 µM): 36.35 ± 4.86%
IC50 (A549 cells; 24 h incubation): 54.2 µM
viability of A549 cells relative to control (A549 cells; 24 h incubation, 0.5 µM): 75.31 ± 7.67%
viability of A549 cells relative to control (A549 cells; 24 h incubation, 1 µM): 70.02 ± 8.73%
viability of A549 cells relative to control (A549 cells; 24 h incubation, 2.5 µM): 73.33 ± 7.65%
viability of A549 cells relative to control (A549 cells; 24 h incubation, 5 µM): 104.37 ± 10.70%
viability of A549 cells relative to control (A549 cells; 24 h incubation, 10 µM): 108.72 ± 15.90%
viability of A549 cells relative to control (A549 cells; 24 h incubation, 25 µM): 82.97 ± 8.04%
viability of A549 cells relative to control (A549 cells; 24 h incubation, 50 µM): 50.31 ± 12.68%
viability of A549 cells relative to control (A549 cells; 24 h incubation, 100 µM): 9.43 ± 1.69%
viability of A549 cells relative to control (A549 cells; 24 h incubation, 250 µM): 2.35 ± 0.49%
DNA damage in HL-60 cells (alkaline comet assay), in words (HL-60 cells [1]; 2 h incubation, 1-50 μM tested): induced DNA damage
DNA in tail (alkaline comet assay) (HL-60 cells [1]; HL-60 cells, 2 h, 50 μM): 25%
viability of HL-60 cells relative to control (HL-60 cells [2]; 2 h incubation, 0.5 µM): 101.68 ± 0.96%
viability of HL-60 cells relative to control (HL-60 cells [2]; 2 h incubation, 1 µM): 101.06 ± 1.48%
viability of HL-60 cells relative to control (HL-60 cells [2]; 2 h incubation, 2.5 µM): 100.83 ± 2.04%
viability of HL-60 cells relative to control (HL-60 cells [2]; 2 h incubation, 5 µM): 97.79 ± 1.25%
viability of HL-60 cells relative to control (HL-60 cells [2]; 2 h incubation, 10 µM): 89.74 ± 2.7%
viability of HL-60 cells relative to control (HL-60 cells [2]; 2 h incubation, 25 µM): 83.96 ± 1.62%
viability of HL-60 cells relative to control (HL-60 cells [2]; 2 h incubation, 50 µM): 73.55 ± 0.27%
viability of HL-60 cells relative to control (HL-60 cells [2]; 2 h incubation, 100 µM): 24.73 ± 1.89%
viability of HL-60 cells relative to control (HL-60 cells [2]; 2 h incubation, 250 µM): 15.71 ± 0.21%
IC50 (HL-60 cells [2]; 24 h incubation): 7.69 µM
viability of HL-60 cells relative to control (HL-60 cells [2]; 24 h incubation, 0.5 µM): 106.53 ± 5.45%
viability of HL-60 cells relative to control (HL-60 cells [2]; 24 h incubation, 1 µM): 107.4 ± 3.25%
viability of HL-60 cells relative to control (HL-60 cells [2]; 24 h incubation, 2.5 µM): 109.43 ± 1.41%
viability of HL-60 cells relative to control (HL-60 cells [2]; 24 h incubation, 5 µM): 89.27 ± 2.42%
viability of HL-60 cells relative to control (HL-60 cells [2]; 24 h incubation, 10 µM): 42.91 ± 0.62%
viability of HL-60 cells relative to control (HL-60 cells [2]; 24 h incubation, 25 µM): 37.45 ± 1.48%
viability of HL-60 cells relative to control (HL-60 cells [2]; 24 h incubation, 50 µM): 30.99 ± 0.27%
viability of HL-60 cells relative to control (HL-60 cells [2]; 24 h incubation, 100 µM): 14.21 ± 0.37%
viability of HL-60 cells relative to control (HL-60 cells [2]; 24 h incubation, 250 µM): 3.83 ± 0.21%
viability of PBM cells relative to control (PBM cells; 2 h incubation, 0.5 µM): 101.07 ± 0.78%
viability of PBM cells relative to control (PBM cells; 2 h incubation, 1 µM): 100.74 ± 0.73%
viability of PBM cells relative to control (PBM cells; 2 h incubation, 2.5 µM): 99.56 ± 1.96%
viability of PBM cells relative to control (PBM cells; 2 h incubation, 5 µM): 99.26 ± 2.82%
viability of PBM cells relative to control (PBM cells; 2 h incubation, 10 µM): 101.49 ± 4.25%
viability of PBM cells relative to control (PBM cells; 2 h incubation, 25 µM): 99.86 ± 1.87%
viability of PBM cells relative to control (PBM cells; 2 h incubation, 50 µM): 100.66 ± 0.97%
viability of PBM cells relative to control (PBM cells; 2 h incubation, 100 µM): 100.59 ± 1.01%
viability of PBM cells relative to control (PBM cells; 2 h incubation, 250 µM): 93.17 ± 2.92%
IC50 (PBM cells; 24 h incubation): 106 µM
viability of PBM cells relative to control (PBM cells; 24 h incubation, 0.5 µM): 106.05 ± 1.67%
viability of PBM cells relative to control (PBM cells; 24 h incubation, 1 µM): 103.84 ± 0.59%
viability of PBM cells relative to control (PBM cells; 24 h incubation, 2.5 µM): 99.3 ± 1.2%
viability of PBM cells relative to control (PBM cells; 24 h incubation, 5 µM): 91.84 ± 1.72%
viability of PBM cells relative to control (PBM cells; 24 h incubation, 10 µM): 85.39 ± 1.19%
viability of PBM cells relative to control (PBM cells; 24 h incubation, 25 µM): 89.23 ± 0.44%
viability of PBM cells relative to control (PBM cells; 24 h incubation, 50 µM): 78.87 ± 1.76%
viability of PBM cells relative to control (PBM cells; 24 h incubation, 100 µM): 50.82 ± 1.08%
viability of PBM cells relative to control (PBM cells; 24 h incubation, 250 µM): 21.96 ± 0.71%

From PMC10920834, “Synthesis, anticancer activity, and molecular docking of half-sandwich iron(II) cyclopentadienyl complexes with maleimide and phosphine or phosphite ligands” (Scientific Reports, 2024)
